Reference: ChEMBL document CHEMBL1157423, “Structural and stereochemical studies of alpha-methylene-gamma-lactone-bearing cembrane diterpenoids from a south china sea soft coral Lobophytum crassum” (2008)

Legend:
P388 = experiment: Cytotoxicity against mouse P388 cells at 10 uM/L; format: functional; conditions: read-out: GI
A549 = experiment: Cytotoxicity against human A549 cells at 10 uM/L; format: functional; conditions: read-out: GI

Row | SMILES | inhibition of growth at 10 µM (P388) [%] | inhibition of growth at 10 µM (A549) [%]
1 | C=C1C(=O)O[C@@H]2[C@@H]1C[C@H]1O[C@]1(CO)CC/C=C(\C)CC/C=C(\C)[C@H]2O [SINULAROLIDE B] | 100 | 
2 | C=C1C(=O)O[C@@H]2[C@@H]1C/C=C(\CO)CC/C=C(\C)CC/C=C(\C)[C@H]2O [PRESINULAROLIDE B] |  | 64
3 | C=C1C(=O)O[C@H]2C/C(C)=C/CC/C(C)=C/CC/C(CO)=C/C[C@H]12 [3-DEHYDROXYLPRESINULAROLIDE B] | 100 | 95.7
4 | C=C1C(=O)O[C@@H]2[C@@H]1C[C@H]1O[C@]1(CO)CC/C=C(\C)CC/C=C(\C)[C@@H]2O [SINULAROLIDE C] | 63.8 | 
